pIC50: −log10 of the molar value. Where a name gives a salt, the structure may show the parent alone. One block for each molecule: values may come before it.
Tests used:
[1] = test system: HeLa cells; settings: 0.2 μM DAPI, 60 min incubation
Method: Cells were fixed and stained with WGA-A488 (Invitrogen) as described above. […] Confocal images were captured and analyzed as described above.
For delivery studies, the DAPI concentration was five magnitudes lower measuring only 0.2 μM DAPI.

[2] = test system: HeLa cells; assay: XTT cell viability assay, HeLa; format: cell-based, human; settings: drug concentration, 24 h exposure, washed, further 24 h
[3] = test system: PC-3 cells; assay: XTT cell viability assay, PC-3; format: cell-based; settings: Homo sapiens, drug concentration, 24 h exposure, washed, further 24 h
[4] = test system: HT-29 cells; assay: XTT cell viability assay, HT-29; format: cell-based; settings: Homo sapiens, drug concentration, 24 h exposure, washed, further 24 h

Molecule: 4′,6-diamidino-2-phenylindole [DAPI]
fluorescent signals from the nuclei [1]: do not show any apparent fluorescent signals

Molecule: N.N.[Cl][Pt][Cl] [CDDP, cis-dichlorodiammine platinum(II)]
pIC50 [2]: 4.68 to 4.92

pIC50 ([2]; Homo sapiens): 5.54 to 5.74
pIC50 [3]: 5.21
pIC50 [4]: 5.21
Molecule: Nc1ccc2cc3ccc(N)cc3nc2c1 [proflavine, 3,6-diaminoacridine hydrochloride]

Source: patent US11371025B2, “Non-covalent loading of plant picovirus particles” (CASE WESTERN RESERVE UNIVERSITY, priority 2013, dated 2022)
